The record followed here is a melting point compilation (Tetko et al.).

What is called melting point is the temperature of the solid-liquid transition.

`Nc1ccc2[nH]c(C(F)(F)F)nc2c1` registered a melting point of 188 °C.

`COc1ccc2c3c1OC1C(O)CC=C4C(C2)N(C)CCC431` (configuration not stated) yielded a melting point of 128 °C.

As to `Brc1n[nH]c(Br)c1Br`, the melting point is 190 to 192 °C.

With `O=c1ccc2cc(Cl)ccc2o1`, the melting point amounted to 165 °C.

In turn, `N#Cc1ccc2ccccc2n1` yielded a melting point of 95 °C.

Molecule `C(=N\c1cc2c(cc1CCc1ccccc1)CC(c1ccccc1)N2)/c1ccccc1` (configuration not stated) had a melting point of 118 °C.

As to `Cc1ccc(-c2nc3ccc(C)cn3c2CC(=O)N(C)C)cc1`, the melting point worked out at 196 °C.

`Cc1nc(N(C)C)nc(OC(=O)N(C)C)c1C` yielded a melting point of 91.6 °C.

As to `O=C(CBr)c1ccc(F)c(F)c1`, the melting point was 28 to 30 °C.

`O=C(NC1CCCCC1)c1ccccc1`: the melting point was 145 °C.

In turn, `Clc1ccc(Cl)c(Cl)c1` gave a melting point of 17 °C.

For the molecule `CCN(C)C(=O)COC(=O)c1ccccc1`, the melting point is 20 °C.

In turn, `Cc1cccc2c1C(=O)OC2=O` yielded a melting point of 116 °C.

Turning to `C[Si](C)(C)O[Si](C)(C)O[Si](C)(C)O[Si](C)(C)O[Si](C)(C)O[Si](C)(C)O[Si](C)(C)C`, the melting point was -78 °C.

In turn, `CN(C)c1ccc(C#N)cc1` registered a melting point of 74 °C.

Molecule `O=C(Cl)Cc1ccc2ccccc2c1` showed a melting point of 60 to 61 °C.

On to `Nc1ccc(Cl)c(Cl)c1Cl`, for which the melting point worked out at 73 °C.

Turning to `C=C(Cl)C#N`, the melting point is -65 °C.

`C/C(=N\O)c1cc(C(C)(C)C)c(O)c(C(C)(C)C)c1` gave a melting point of 200 to 201 °C.

Regarding `Fc1ccc(-c2ccc(F)cc2)cc1`, the melting point turned out to be 94.5 °C.

Consider `Cn1cnc2[nH]c(N)nc(=O)c21`, for which the melting point worked out at 370 °C.

As to `CC(C)(C)c1ccncc1`, the melting point is -41 °C.

For the molecule `O=C(O)c1cc(F)ccc1C(F)(F)F`, the melting point was 82 °C.

`Clc1nc(Cl)nc(Cl)n1` had a melting point of 154 °C.

Take `C1=CC2C3C=CC(C3)C2C1` (configuration not stated): the melting point came out at 33.6 °C.

Regarding `O=Cc1ccc2sccc2c1`, the melting point lay in the range of 53 to 54 °C.

`O=Cc1cc(Cl)cc(C=O)c1O`: the melting point is 119 to 125 °C.

With `Brc1ccc(-c2ccc(Br)cc2)cc1`, the melting point was determined as 167 °C.

Regarding `O=C(/C=C/c1ccccc1)Oc1ccc(/C=C/C(=O)c2ccccc2)cc1`, the melting point was 158 °C.

As to `Nc1nc(=O)[nH]cc1F`, the melting point was found to be 296 °C.

Molecule `CCCCC(=O)OC1(C(=O)CO)CCC2C3CCC4=CC(=O)CCC4(C)C3C(O)CC21C` (configuration not stated) came in with a melting point of 218 °C.

Molecule `COP(=S)(OC)Oc1ccc([N+](=O)[O-])c(C)c1` showed a melting point of 3.4 °C.

`CCCCc1ccc2ccccc2c1` gave a melting point of -5 °C.

For the molecule `COc1cc(-c2ccccc2)c(C)cc1N`, the melting point lay in the range of 65 to 67 °C.

`COc1ccc2c(c1)N(CCCN(C)C)c1ccccc1S2` showed a melting point of 46 °C.

`NC(=O)CNCCS(=O)(=O)O` returned a melting point of 270 to 295 °C.

`CC(C)(CC(=O)O)C(=O)O`: the melting point amounted to 140 °C.

Consider `N#CCc1ccc(OCc2ccccc2)cc1`, for which the melting point came out at 68 °C.

Molecule `CC(C)Oc1ccc(S(=O)(=O)Cl)cc1` yielded a melting point of 33 °C.

The molecule `Oc1ccccc1C=NC1CCCCC1N=Cc1ccccc1O` (configuration not stated) registered a melting point of 118 °C.

On to `O=C1CCC(c2ccc(NC(=O)CCl)cc2)=NN1`, for which the melting point was 220 to 223 °C.

With `Cc1cc(C2CC2)nc(Nc2ccccc2)n1`, the melting point came to 75.9 °C.

In the case of `O=Cc1ccc(-n2cncn2)cc1`, the melting point lay within 147 to 149 °C.

In turn, `O=C(O)c1c(Cl)c(Cl)c(Cl)c(Cl)c1C(=O)O` displayed a melting point of 98 °C.

Molecule `O=CF` gave a melting point of -142 °C.

Take `O=C(O)C(O)c1ccc(C(F)(F)F)cc1` (configuration not stated): the melting point fell in the range of 130 to 134 °C.

Take `CN1c2ccccc2C(C)(C)C12C=Cc1cc([N+](=O)[O-])ccc1O2` (configuration not stated): the melting point is 180 °C.

As to `CC(C)C1=CC2=CCC3C(C)(C(=O)O)CCCC3(C)C2CC1` (configuration not stated), the melting point came out at 174 °C.

Molecule `COC(=O)CC(=O)c1ccc(C(F)(F)F)cc1` had a melting point of 57 to 62 °C.

The molecule `Cc1cc(C)n(N=Cc2ccccc2)c(=O)c1C#N` had a melting point of 194 to 195 °C.

`CC[Si](Cl)(CC)CC`: the melting point was -75 °C.

As for `CCCCCCCCCCCCOc1ccc(C(C)=O)cc1`, the melting point fell in the range of 44 to 47 °C.

Turning to `NC(=O)/C(=N\Nc1cccc(C(F)(F)F)c1)c1nc2ccccc2s1`, the melting point came to 190 °C.

Take `FC(F)(F)COCC(F)(F)F`: the melting point was less than 25 °C.

The molecule `Nc1cc(F)ccc1O` returned a melting point of 140 °C.

In turn, `COC(=O)c1ccc([N+](=O)[O-])cc1Cl` came in with a melting point of 77 to 78 °C.

Regarding `Cc1ccc(C)c([N+](=O)[O-])c1`, the melting point is -25 °C.

For `Oc1ccc(F)c2cccnc12`, the melting point was 110 °C.

For the molecule `CCCCCCc1ccc(C#Cc2ccc(CC)cc2)cc1`, the melting point is 10 °C.

Consider `CN1CCN(c2cccc([N+](=O)[O-])c2)CC1`, for which the melting point is 60 to 62 °C.

As to `O=C(O)c1cccc2c1CCCC2`, the melting point lay in the range of 147 to 150 °C.

In the case of `CC(O)CCO` (configuration not stated), the melting point is -54 °C.

The molecule `c1cncc(-c2nc3ccccc3[nH]2)c1` yielded a melting point of 257 °C.

The molecule `O=C(OCc1ccccc1)c1ccccc1O` had a melting point of 19 °C.

For `CC(C)c1cc(Oc2ccccc2)cc(C(C)C)c1NC(=S)NC(C)(C)C`, the melting point came to 146 °C.

Turning to `CCC(=O)c1ccc(O)c(C)c1O`, the melting point is 128 to 130 °C.

On to `O=S1(=O)Cc2ccccc2C1`, for which the melting point lay in the range of 151 to 152 °C.

`COc1cc(OC)nc(Oc2cccc(Oc3nc(OC)cc(OC)n3)c2C(=O)ON=C(c2ccccc2)c2ccccc2)n1` showed a melting point of 129 °C.

The molecule `Cc1ccc(-n2c(C)nc3cc([N+](=O)[O-])ccc32)cc1` had a melting point of 152 °C.

Take `O=C1C(Cl)=C(NC(=O)C(Cl)Cl)C(=O)c2ccccc21`: the melting point came out at 212 °C.

For the molecule `CC(C)(C)OC(=O)N1CC(C(=O)O)C1`, the melting point turned out to be 102 °C.

In turn, `CCCc1c(O)ccc(C(C)=O)c1N` registered a melting point of 95 to 97 °C.

Turning to `O=C(O)C1Cc2cc(O)ccc2CN1` (racemic), the melting point was in the range of 256 to 260 °C.

Molecule `COC1=CC=C2C3Cc4ccc(OC)c5c4C2(CCN3C)C1O5` (configuration not stated) displayed a melting point of 193 °C.

For `O=C(O)c1cc(F)ccc1[N+](=O)[O-]`, the melting point was 135 °C.

In turn, `CC(=O)Cc1ncn(-c2cc(C)on2)n1` gave a melting point of 138 to 140 °C.

In the case of `CCOC`, the melting point is -113 °C.

Molecule `O=S(=O)(CS(=O)(=O)c1ccccc1)c1ccccc1` gave a melting point of 117 to 123 °C.

In the case of `N#Cc1ccc([N+](=O)[O-])cc1C#N`, the melting point was in the range of 140 to 144 °C.

`Cc1cccc(Cc2ccccc2)c1` yielded a melting point of -28 °C.

In turn, `Nc1nc(F)cc(C(F)(F)F)c1F` displayed a melting point of 67 °C.

Consider `CS(=O)(=O)Cc1ccccc1`, for which the melting point is 126 °C.
